Measured values reported in article PMC7573825 (Frontiers in Pharmacology, 2020).
Read-outs that look alike come from different tables or passages of the source.

What was measured:
[1] = Population pharmacokinetic modeling (NONMEM, one-compartment) of intravenous vancomycin from TDM trough plasma concentrations in kidney transplant recipients; conditions: for Typical value of V / Typical value of CL: intravenous vancomycin, 56 adult kidney transplant recipients
Protocol: All these patients adopted routine therapeutic drug monitoring. The transplant surgeries were performed between March 8 and June 21 in 2017. […] The glomerular filtration rate (GFR) was estimated from the sCr according to the published formula [GFR (ml min^-1): GFR = 2.104*sCr(μM) - 1.154*age - 1.154*(0.742 for female)*1.233(correction for Chinese)]
Other concomitantly used drugs, such as prednisone, mycophenolate mofetil, cyclosporine, and tacrolimus were administered orally or intravenously once or twice a day, and their usages and doses were based on clinical necessity and safety.
The venous blood was centrifuged at 1,000 g for 4 min and a volume of 100 ml supernatant plasma was mixed with 100 ml of 5% perchloric acid solution. The mixture was fully vortex blended and then centrifuged at 14,000 g for 5 min. […] AHC-C18 column (250 mm × 4.6 mm, 5 μm; ShimadzuCo., Japan), a precolumn (10 mm × 4 mm, 5 μm; ShimadzuCo.), and a PDA detector (ShimadzuCo.) were used in the workstation. The mobile phase was acetonitrile in 0.01 M KH2PO4 solution (7:93 in volume), the flow rate was 0.5 ml min^-1, the column temperature was 30°C, and the detection wavelength was 236 nm. […] After using the same parallel method for sample preparation as mentioned above, the standard samples were simultaneously injected with the samples for testing.
Data processing and pharmacokinetic analysis were carried out with the nonlinear mixed-effects model program (NONMEM®, Version 7.4; Icon Inc, PA, USA), compiled with GFortran (Version 4.9.2; http://www.gfortran.org). The output was explored by the R package (Version 3.3.1; http://www.r-project.org) and Xpose (Version 4.5.3; http://xpose.sourceforge.net). The first-order conditional estimation method with η-ε interaction (FOCE-I) was used throughout the model-building procedure.
First, we established the base compartment model. For the statistical modeling, exponential model was used as the inter-individual variation model:
For the residual variation modeling, additive, proportional, and mixed models were applied. The additive and proportional mixed model is as follows:
In the forward model building step, the covariates were assessed for their suitability depending on the changes in the objective function values (OFV) and the inter-individual variations and residual variations. Taking an example with df = 1, when the decrease of OFV is more than 3.84 (P < 0.05, df = 1), the introduced factor can be considered as a significant covariate for the parameter model. During the backward analysis, a covariate was removed from the model every time, except when the OFV value increased by more than 6.63 units (P < 0.01, df = 1).
For the effects of continuous variables on pharmacokinetic parameters, linear, exponential, and power function models were used. The linear function model was:

[2] = test system: most sensitive bacteria; parameters: method as in Bhongsatiern et al., 2015; Bruniera et al., 2015; conditions: ref Bhongsatiern et al., 2015, Bruniera et al.; cited from earlier work
[3] = parameters: method as in 3 sources, one per row (each row's own in cited_ref): ref Adane et al., 2015; Lin et al., 2016 ||| ref Ji et al., 2018 ||| ref Lin et al., 2019; conditions: ref Adane et al., 2015, Lin et al., 2016, cited from earlier work

In the case of CN[C@H](CC(C)C)C(=O)N[C@H]1C(=O)N[C@@H](CC(N)=O)C(=O)N[C@H]2C(=O)N[C@H]3C(=O)N[C@H](C(=O)N[C@H](C(=O)O)c4cc(O)cc(O)c4-c4cc3ccc4O)[C@H](O)c3ccc(c(Cl)c3)Oc3cc2cc(c3O[C@@H]2O[C@H](CO)[C@@H](O)[C@H](O)[C@H]2O[C@H]2C[C@](C)(N)[C@H](O)[C@H](C)O2)Oc2ccc(cc2Cl)[C@H]1O [vancomycin], the “Typical value of V” value ([1]; base model, one-compartment, 195 plasma Cmin) is reported as 45.5 L, the “Typical value of CL” value ([1]; base model, one-compartment, 195 plasma Cmin, HPLC, FOCE-I) is reported as 1.84 L/h and the “Typical value of CL” value ([1]; final model, CL=2.08×[(WT/59.95)^1.07]×[(GFR/36.67)^0.698], 195 plasma Cmin) is reported as 2.08 L/h. For the same molecule, the “Typical value of V” value ([1]; final model, V=63.2×[(WT/59.95)^0.934]) was 63.2 L, the “Influential factor for WT on V (θ3)” value ([1]; final model, power function exponent) was 0.934 and the “minimum inhibitory concentration (MIC)” value [2] was 0.1 to 2 µg/mL. The Vancomycin clearance ([3]; adult Chinese patients with post-craniotomy meningitis, typical creatinine clearance rate 104.7 ml/min) was 7.56 L/h and the Vancomycin clearance ([3]; patients with augmented renal clearance) was 8.52 L/h.
